Assay results taken from patent publication US20110076331A1, “Use of Deuterium Oxide as an Elastase Inhibitor” (priority 2008, published 2011).

What was measured:
[1] = target: T1, human neutrophil elastase (HNE) (Homo sapiens, UniProt P08246); test: Inhibition of AAPV conversion by human neutrophil elastase (photometric, 405 nm); assay type: biochemical
T1 sequence (P08246 30-267): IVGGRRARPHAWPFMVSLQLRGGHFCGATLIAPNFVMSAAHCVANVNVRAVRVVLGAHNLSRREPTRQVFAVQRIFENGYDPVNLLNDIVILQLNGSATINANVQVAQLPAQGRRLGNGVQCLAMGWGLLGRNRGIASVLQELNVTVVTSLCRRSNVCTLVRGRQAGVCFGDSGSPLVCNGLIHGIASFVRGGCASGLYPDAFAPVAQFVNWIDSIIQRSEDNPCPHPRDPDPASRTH
Description: Measurement of AAPV conversation occurred spectrophotometrically at a wavelength of 405 nm.
HNE was incubated together with the synthetic substrate N-methoxysuccinyl-Ala-Ala-Pro-Val-p-nitroanilide (AAPV). Conversion of AAPV was then determined photometrically at 405 nm. The following incubation scheme was used: • Sample 1) HNE IN D2O with AAPV in D2O; • Sample 2) HNE in D2O with AAPV in H2O; • Sample 3) HNE in H2O with AAPV in D2O; • Control: HNE in H2O with AAPV in H2O.
The enzyme and substrate were each incubated for 60 minutes with H2O or D2O before HNE and AAPV were added together. The amount of D2O in the experiments was varied over a range from 10 to 100% in order to detect the dependence of inhibition of AAPV conversion by HNE.
A half-maximum effective dose was determined at a D2O content of about 40 vol %. At 100% D2O in the mixture an inhibition of AAPV conversion of about 70% was achieved.

[2] = system: white New Zealand rabbits; test: Animal model for myocardial reperfusion damage (coronary artery ligature); assay type: in vivo, rabbit; conditions: intravenous D2O isotonic saline 15 minutes before or 25 minutes after reopening of the coronary artery; vs H2O-treated animals
Description: In an animal model for reperfusion damage a reduced blood supply to the heart muscle tissue was achieved by ligature of a coronary artery in male white New Zealand rabbits, which led to damage (Bidouard, J. P. et al.; SSR69071, an elastase inhibitor, reduces myocardial infarct size following ischemia reperfusion injury, Eur J Pharmacol. 2003; 461:49-52). By thoracotomy a side branch of the left coronary artery was closed by ligature for 30 minutes and then opened again in order to achieve reperfusion over 120 minutes. Before removal of the heart an ink bolus (pelican ink) was introduced to the ascending aorta. To investigate the effect of D2O on reperfusion damage the animals were divided into three groups of two animals each. Two groups received an intravenous treatment with D2O in the form of isotonic saline either 15 minutes before (experimental group 1) or 25 minutes after (experimental group 2) reopening of the coronary artery, the other group (control group) was treated with H2O as isotonic saline. After removal of the heart, unclamping of the aorta, formalin fixation and paraffin embedding the heart was investigated for homogeneity of ink distribution in the capillary system through three cross sections and by immunohistochemistry. The immunohistochemical detection of granulocytes occurred by a-naphthol chloroacetate esterase staining. […]

[3] = system: Long-Evans rats; test: Cerebral ischemia/reperfusion animal model; assay type: in vivo, rat; conditions: D2O in isotonic saline infused 15 minutes before ischemia and right before reperfusion; vs H2O
Description: The effect of D2O on cerebral ischemia was investigated in an animal model. For this purpose cerebral ischemia was produced for 1 hour in adult Long-Evans rats by closure of both carotid arteries, which followed reperfusion over 24 hours. Final observation with evaluation of neurovegetative symptoms occurred (spontaneous activity, coordinated walking, stretching of the front paw and climbing). Damage to the brain tissue was then investigated histologically. In two experimental groups of three rats each, either D2O (experimental group) or H2O (control group) in isotonic saline was infused in the animals 15 minutes before initiation of ischemia and right before subsequent reperfusion.

[4] = system: subjects with the minor form of RBA; test: Gel treatment of recurring benign aphthosis (RBA); assay type: in vivo, human; conditions: D2O gel (example 1) three times a day; three days after first application
Description: Eight volunteer subjects with the minor form of RBA (diameter of round to oval erosion is 3-5 mm) at locations of the oral mucosa readily accessible to optical inspection (and especially cheek mucosa and mucosa in the lower jaw area) were randomized into two groups of four subjects each (experimental group and control group) and the size (diameter) of the aphthae (initial value) was determined precisely at 0.5 mm optically. For size determination only the gray-covered eroded surface was considered and the red edge area was not considered. The first aphthosis symptoms of the subjects in both groups were at least 2 days old and at most 4 days old. The experimental group received a D2O gel prepared according to example 1 three times a day applied with an appropriate applicator to the erosion (aphtha). It was ensured that the applied gel covered the entire surface of the aphtha plus a 2-3 mm wide edge and was allowed to act at least for 5 minutes. The control group was treated similarly with an identical dose and application of an H2O prepared according to example 1. […] For the experimental group an average reduction in diameter relative to the initial value of 30±10% can be detected and in the control group an average increase in aphthae diameter by 15±10% was observed.

half-maximum effective dose (D2O content) for inhibition of AAPV conversion ([1]; D2O amount in the mixture of HNE and AAPV, 60 minutes preincubation): about 40 vol % | inhibition of AAPV conversion ([1]; at 100% D2O in the mixture): about 70%
SMILES: [2H]O[2H] [D2O, deuterium oxide]
heart muscle damage (granulocytes, capillary ink marking) [2]: significantly lower heart muscle damage | reperfusion damage (granulocytes in histological sections, neurological behavior) [3]: significant effect on the reduction in reperfusion damage | average reduction in aphthae diameter relative to the initial value [4]: 30±10%
